One assay has as its target HDAC1 (Homo sapiens, UniProt Q13547). Description: Test of HDAC activities, HDAC1 Fluorimetric Drug Discovery Assay Kit. The arrangement: purchased Enzolifesciences BML-AK511. It is filed as biochemical. To be noted: samples at 100, 1000, 10000 nM; 37° C. 60 minutes; fluorescence Ex 390, Em 460; read-out: HDAC inhibitory activities, HDAC1. In a few lines:
(§1)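 HDAC1 tested at 100, 1000 and 10000 nM; recombinant human HDAC6 at 0.1, 1, 10, 100 and 1000 nM. Reaction 60 min at 37° C, then developer for 30 min at 37° C; fluorescence read at Ex 390/Em 460.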

Assay [1] has as its system collagen-induced arthritis models. Description: Collagen-induced arthritis models. To be noted: 30 mg/kg twice a day. It is filed as in vivo, DBA/1J mice. The protocol: An emulsion was prepared by mixing bovine collagen type II (Chondrex) and complete Freund's adjuvant (Chondrex) at a ratio of 1:1 until the […] using a 1 ml pipette. Each 100 μL of emulsion was intradermally injected into the tail of DBA/1J mice for the first immunization. After 21 days, an emulsion was prepared by mixing bovine collagen type II and incomplete Freund's adjuvant (Chondrex) at a ratio of 1:1 by the same method as above. Each of 100 μL of emulsion was intradermally injected into the upper part of the tail of DBA/1J mice for the second boosting immunization. After the second boosting immunization, the mice were grouped according to body weight, the test drug was administered to each group, and the effects of the test drugs were measured by measuring the clinical score and the body weight. The clinical scores were assigned from 0 to 4, and the total clinical score was determined by evaluating the feet of each mouse and summing up the scores (normal: 0, most severe edema: 16). That is, the efficacy in the arthritis models was evaluated with the severity of edema of the joint, and a higher score was assigned to more severe edema.

A further assay addresses T1, HDAC 6 (Homo sapiens, UniProt Q9UBN7).
T1 sequence (Q9UBN7 1-1215): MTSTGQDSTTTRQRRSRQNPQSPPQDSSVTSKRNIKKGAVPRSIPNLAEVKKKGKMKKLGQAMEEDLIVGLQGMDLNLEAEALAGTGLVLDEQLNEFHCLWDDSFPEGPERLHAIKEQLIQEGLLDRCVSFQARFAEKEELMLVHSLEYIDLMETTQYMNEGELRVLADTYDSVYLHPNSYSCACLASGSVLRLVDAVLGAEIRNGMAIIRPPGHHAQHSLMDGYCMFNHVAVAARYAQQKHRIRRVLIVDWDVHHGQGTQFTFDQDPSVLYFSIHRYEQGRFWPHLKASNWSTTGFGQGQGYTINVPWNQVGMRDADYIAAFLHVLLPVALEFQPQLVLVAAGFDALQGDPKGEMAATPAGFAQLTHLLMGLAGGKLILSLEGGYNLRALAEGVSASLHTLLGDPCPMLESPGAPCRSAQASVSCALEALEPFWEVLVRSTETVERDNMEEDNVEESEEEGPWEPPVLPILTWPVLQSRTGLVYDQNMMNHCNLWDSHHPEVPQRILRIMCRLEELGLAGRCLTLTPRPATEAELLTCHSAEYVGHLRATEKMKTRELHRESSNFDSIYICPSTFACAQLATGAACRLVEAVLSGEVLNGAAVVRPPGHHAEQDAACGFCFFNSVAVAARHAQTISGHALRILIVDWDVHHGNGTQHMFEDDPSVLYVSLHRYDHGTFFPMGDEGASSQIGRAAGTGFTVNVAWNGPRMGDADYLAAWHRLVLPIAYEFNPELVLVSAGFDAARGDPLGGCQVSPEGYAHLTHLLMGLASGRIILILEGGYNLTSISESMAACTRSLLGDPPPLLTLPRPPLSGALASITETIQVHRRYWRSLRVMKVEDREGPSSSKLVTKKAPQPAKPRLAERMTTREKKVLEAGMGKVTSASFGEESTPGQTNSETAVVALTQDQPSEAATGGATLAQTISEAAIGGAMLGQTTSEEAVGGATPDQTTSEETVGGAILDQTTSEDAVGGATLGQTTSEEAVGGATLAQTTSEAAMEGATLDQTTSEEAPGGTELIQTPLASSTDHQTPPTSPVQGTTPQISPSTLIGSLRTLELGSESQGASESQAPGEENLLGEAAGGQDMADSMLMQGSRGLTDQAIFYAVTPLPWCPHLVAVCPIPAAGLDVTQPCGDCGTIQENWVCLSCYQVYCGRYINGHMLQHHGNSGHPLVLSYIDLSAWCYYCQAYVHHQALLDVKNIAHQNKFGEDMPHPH
Nature of the assay: Test of HDAC activities, HDAC6 (fluorimetric). It is filed as biochemical. The arrangement: purchased Calbiochem 382180. To be noted: samples at 0.1, 1, 10, 100, 1000 nM; 37° C. 60 minutes; fluorescence Ex 390, Em 460; read-out: HDAC inhibitory activities, HDAC6. In a few lines: as §1

Another assay concerns colitis models. Nature of the assay: Colitis models (dextran sulfate sodium). To be noted: intraperitoneally twice a day after 8 days from supply of DSS; disease-induced models lost to 17.5 to 18 g. It is filed as in vivo, C57BL/6J mice. On the procedure: 3.0% dextran sulfate sodium (DSS: MP biomedicals) was dissolved in deionized water and supplied to 9-week-old C57BL/6J mice for 5 to 7 days and then water was normally supplied to the mice to induce colitis in animal models. The experimental animals were classified into a solvent control group and each group treated with Compound 254 and Compound 255 as test materials based on the body weight of the experimental animals. The test material was intraperitoneally injected twice a day after 8 days from the supply of DSS. The evaluation of the efficacy in colitis models was made by determining the degree to which the weight, lost due to the disease, was recovered to normal level, and the results are shown in FIG. 6.

Experimental findings from patent US9878986B2, “Compounds for selective histone deacetylase inhibitors, and pharmaceutical composition comprising the same” (CHONG KUN DANG PHARMACEUTICAL CORP., priority 2013, dated 2018) are described below.

Sequence of HDAC1 (Q13547 whole entry): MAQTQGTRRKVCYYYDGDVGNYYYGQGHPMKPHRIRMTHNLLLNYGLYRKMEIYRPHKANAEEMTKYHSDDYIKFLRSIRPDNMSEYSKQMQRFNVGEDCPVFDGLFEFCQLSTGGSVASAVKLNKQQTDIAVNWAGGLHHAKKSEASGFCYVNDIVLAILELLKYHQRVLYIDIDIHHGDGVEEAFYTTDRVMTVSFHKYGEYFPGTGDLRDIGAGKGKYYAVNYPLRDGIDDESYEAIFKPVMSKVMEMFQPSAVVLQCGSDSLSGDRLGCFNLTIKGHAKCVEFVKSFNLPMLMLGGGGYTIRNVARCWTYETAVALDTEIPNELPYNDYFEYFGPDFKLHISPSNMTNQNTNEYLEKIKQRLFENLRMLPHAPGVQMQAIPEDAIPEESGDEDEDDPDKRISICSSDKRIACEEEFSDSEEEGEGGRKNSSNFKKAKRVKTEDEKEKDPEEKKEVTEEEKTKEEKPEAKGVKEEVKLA

Consider `Cn1ncc2ccc(-c3cccc(N(Cc4ccc(C(=O)NO)cc4)C(=O)N4CCOCC4)c3)cc21` [Compound 254, N-(4-(hydroxycarbamoyl)benzyl)-N-(3-(1-methyl-1H-indazol-6-yl)phenyl)morpholine-4-carboxamide], for which the IC50 worked out at 173 nM at HDAC1 and 2 nM at HDAC 6. Moreover, the “arthritis symptoms improved by” value in assay [1] (versus vehicle group) is given as “more than 40%”. Also, in assay [1] (score 0 to 16, vehicle group 11.6), the clinical score is on record as 6.4. Besides, the “weight recovered to” value in the assay with colitis models is 18.5 to 19.0 g.
